{
  "source": "ChEMBL document CHEMBL1146169",
  "about": "“In silico identification and biochemical characterization of novel inhibitors of NQO1” (Bioorg Med Chem Lett, 2006)",
  "molecular_target": "NAD(P)H dehydrogenase [quinone] 1 (Homo sapiens, UniProt P15559)",
  "sequence (P15559 whole entry)": "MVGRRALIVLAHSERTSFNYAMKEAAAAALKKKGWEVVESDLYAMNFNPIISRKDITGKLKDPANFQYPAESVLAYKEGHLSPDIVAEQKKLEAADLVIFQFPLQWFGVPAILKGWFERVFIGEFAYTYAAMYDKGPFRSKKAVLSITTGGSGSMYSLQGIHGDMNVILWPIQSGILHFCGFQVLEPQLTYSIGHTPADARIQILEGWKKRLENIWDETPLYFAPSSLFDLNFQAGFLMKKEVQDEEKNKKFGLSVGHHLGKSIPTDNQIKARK",
  "description": "Inhibition of human recombinant NQO1",
  "data": [
    {"smiles": "O=C1c2ccccc2C(=O)c2c(O)c(NCCCNCCO)cc(O)c21", "values": [
      {"measurement": "IC50", "result": 17.5, "unit": "µM"}
    ]},
    {"smiles": "CN(C)CCNc1ccc2ncn3c4ccc(O)cc4c(=O)c1c23", "values": [
      {"measurement": "IC50", "result": 10, "unit": "µM"}
    ]},
    {"smiles": "Cn1c2cc(O)ccc2c2c3nc4ccccc4nc3cc(O)c21", "values": [
      {"measurement": "IC50", "result": 3, "unit": "µM"}
    ]},
    {"smiles": "CNC(=O)N(OC(N)=O)C(C)=O", "values": [
      {"measurement": "IC50", "result": 55, "unit": "µM"}
    ]},
    {"smiles": "Nc1nc2cc3nc(N)c(N)nc3cc2nc1N", "values": [
      {"measurement": "IC50", "result": 25, "unit": "µM"}
    ]},
    {"smiles": "O=c1c2ccccc2c(=O)c2c1c(O)cc1[nH]c3ccccc3[nH]c12", "values": [
      {"measurement": "IC50", "result": 2, "unit": "µM"}
    ]},
    {"smiles": "Cc1cc(=O)cc(C)o1", "values": [
      {"measurement": "IC50", "result": 20, "unit": "µM"}
    ]},
    {"smiles": "COc1ccc(OC)c2cc3ccccc3cc12", "values": [
      {"measurement": "IC50", "result": 10, "unit": "µM"}
    ]},
    {"smiles": "O=[N+]([O-])c1ccc(N/N=C(\\N=N\\c2ccccc2)c2nc3ccccc3[nH]2)c([N+](=O)[O-])c1", "values": [
      {"measurement": "IC50", "result": 35, "unit": "µM"}
    ]},
    {"smiles": "CCOC(=O)C1=NN(c2ccccc2)C(=O)/C1=C\\NC(=S)N/N=C1\\C(=O)Nc2ccccc21", "values": [
      {"measurement": "IC50", "result": 35, "unit": "µM"}
    ]},
    {"smiles": "Cn1ncc2c(Cl)ncnc21", "values": [
      {"measurement": "IC50", "result": 105, "unit": "µM"}
    ]},
    {"smiles": "Nc1ccc(O)c2c1C(=O)c1c(O)c(S(=O)(=O)O)cc(N)c1C2=O", "values": [
      {"measurement": "IC50", "result": 7.5, "unit": "µM"}
    ]},
    {"smiles": "O=C1c2ccccc2C(=O)c2c(O)c(NCCCN3CCOCC3)cc(O)c21", "values": [
      {"measurement": "IC50", "result": 2, "unit": "µM"}
    ]},
    {"smiles": "O=C1c2ccccc2C(=O)c2c(O)c(NCCCN(CCO)CCO)cc(O)c21", "values": [
      {"measurement": "IC50", "result": 3, "unit": "µM"}
    ]},
    {"smiles": "CCOc1ccc(OCC)cc1", "note": "[1,4-DIETHOXYBENZENE]", "values": [
      {"measurement": "IC50", "result": 3.5, "unit": "µM"}
    ]},
    {"smiles": "C(=N\\NC1=NCCN1)/c1c2ccccc2c(/C=N/NC2=NCCN2)c2ccccc12", "note": "[BISANTRENE]", "values": [
      {"measurement": "IC50", "result": 25, "unit": "µM"}
    ]},
    {"smiles": "COc1ccc2c(c1)-c1nn(CCCN(C)C)c3ccc([N+](=O)[O-])c(c13)N2", "note": "[PYRAZOLOACRIDINE]", "values": [
      {"measurement": "IC50", "result": 45, "unit": "µM"}
    ]}
  ]
}
